Patent US11590103B2, “Ascorbate in the prevention of statin induced vascular calcification” (priority 2019, dated 2023)

Experiments:
Type in all cases: cell-based
[1] = test system: human aortic smooth muscle cells (AoSMC); assay: Calcium accumulation in extracellular matrix of cultured AoSMC
Experimental: (§1) Cell viability was monitored with MTT assay.
AoSMC were seeded on fibronectin covered plastic plates at density 25,000 per square cm and grown to confluence for 5-7 days. […] J Cardiovasc Pharmacol 2008; 52:55-65. After four washes with PBS, ECM layers were solubilized by incubation in 0.6N HCl for 48 hours at 37° C. Calcium content in solubilized samples was measured with TECO Ca assay according to manufacturer's protocol.

[2] = test system: human dermal fibroblasts (DF); assay: Expression of osteoblast markers in dermal fibroblasts (immunoassay); settings: 100 mcM ascorbic acid, medium with 5 mM beta-glycerophosphate and 25 mcM forskolin, FIG. 3
Experimental: as §1
(§2) For the experiments AoSMC, DF and hFOB cells were seeded in separate 96 well plastic plates at density 25,000 per square cm and grown to confluence for 5-7 days. Tested compounds were added to cells at indicated concentrations for 72 hours in DMEM supplemented with 2% FBS. Cell layers were washed three times with PBS and fixed with 3% formaldehyde in PBS at 4° C. for one hour. Fixed cell layers were washed four times with PBS and treated with 1% BSA/PBS for one hour at RT. Immunoassay for osteogenic markers was done by sequential incubation with primary monoclonal antibodies (R&D Systems) in 1% BSA/PBS for 2 hours followed by 1 hour incubation with secondary goat anti-mouse IgG antibodies labeled with horse radish peroxidase (HRP). Retained peroxidase activity was measured after the last washing cycle (three times with 0.1% BSA/PBS) using TMB peroxidase substrate reagent (Rockland). Optical density was read with plate reader (Molecular Devices) at 450 nm and expressed as percentage of control cell samples incubated in unsupplemented 2% FBS/DMEM. To ensure a direct comparison of osteogenic markers expression on different cell types all pcell covered plates were treated identical and simultaneously during immunoassay.

[3] = test system: human aortic smooth muscle cells (AoSMC); assay: Expression of osteoblast markers in AoSMC (immunoassay); settings: 100 mcM ascorbic acid, medium with 5 mM beta-glycerophosphate and 25 mcM forskolin, FIG. 3
Experimental: as §1, §2

[4] = test system: human aortic smooth muscle cells (AoSMC); assay: Alkaline phosphatase activity assay in AoSMC; settings: 300 mcM ascorbate, regular growth medium, FIG. 1
Experimental: AoSMC were plated in 96 well plates and grown to confluent layer. Cells were incubated with ascorbic acid in growth medium for three days. Cells were washed with phosphate buffered saline (PBS) and supplemented with 50 mcl/well 25 mcg/ml 4-MUP (fluorescent ALP substrate, Sigma) in alkaline buffer (Sigma)/1% Triton X100 for 1 h at room temperature. Fluorescence was measured at 360/450 nm.

[5] = 100 mcM ascorbate concomitant with simvastatin, without forskolin, FIG. 2A

O=C1O[C@H]([C@@H](O)CO)C(O)=C1O [ascorbic acid, L-ascorbic acid]
decrease of calcium accumulation ([1]; 100 mcM ascorbate added to 1 mM mevastatin, with 25 mcM forskolin, FIG. 2B): 19%
accumulated calcium [1, 5]: 0.2 mcg/well
decrease of accumulated calcium [1, 5]: 54%
decrease of extracellular Ca accumulation by AoSMC ([1]; 300 mcM ascorbate, regular growth medium, FIG. 1): 20%
expression of all tested osteogenic markers [2]: significantly reduced
expression of all tested osteogenic markers [3]: significantly reduced
decrease of cellular alkaline phosphatase activity [4]: 80%

CC[C@H](C)C(=O)O[C@H]1CCC=C2C=C[C@H](C)[C@H](CC[C@@H]3C[C@@H](O)CC(=O)O3)[C@H]21 [mevastatin]
calcium accumulation ([1]; 1 mM mevastatin, with 25 mcM forskolin, FIG. 2B, control 1.35 mcg/well): 1.8 mcg/well

CCC(C)(C)C(=O)O[C@H]1C[C@@H](C)C=C2C=C[C@H](C)[C@H](CC[C@@H]3C[C@@H](O)CC(=O)O3)[C@H]21 [simvastatin]
increase of calcium accumulation in AoSMC layers ([1]; in the presence of simvastatin, without forskolin, FIG. 2A): 23%
